Measured values published in ChEMBL document CHEMBL2440076, “New triarylpyrazoles as broad-spectrum anticancer agents: design, synthesis, and biological evaluation” (Eur J Med Chem, 2013).

Assays:
MDA-MB-468 = assay: Growth inhibition of human MDA-MB-468 cells assessed as cell growth at 10 uM after 48 hrs by sulforhodamine B assay; type: functional; details: MDA-MB-468, 48 h, read-out: Activity
UO-31 = assay: Growth inhibition of human UO31 cells assessed as cell growth at 10 uM after 48 hrs by sulforhodamine B assay; type: functional; details: UO-31, 48 h, read-out: Activity
PC-3 = assay: Growth inhibition of human PC3 cells assessed as cell growth at 10 uM after 48 hrs by sulforhodamine B assay; type: functional; details: PC-3, 48 h, read-out: Activity
HCT-15 [1] = assay: Growth inhibition of human HCT15 cells after 48 hrs by sulforhodamine B assay; type: functional; details: HCT-15, 48 h
NCI-H522 [2] = assay: Growth inhibition of human NCI-H522 cells after 48 hrs by sulforhodamine B assay; type: functional; details: NCI-H522, 48 h
COLO 205 = assay: Growth inhibition of human COLO205 cells after 48 hrs by sulforhodamine B assay; type: functional; details: COLO 205, 48 h
NCI-H460 = assay: Growth inhibition of human NCI-H460 cells after 48 hrs by sulforhodamine B assay; type: functional; details: NCI-H460, 48 h
HOP-62 = assay: Growth inhibition of human HOP62 cells after 48 hrs by sulforhodamine B assay; type: functional; details: HOP-62, 48 h; for CC50: read-out: LC50 (the source's name)
HOP-92 = assay: Growth inhibition of human HOP92 cells after 48 hrs by sulforhodamine B assay; type: functional, cell-based; details: HOP-92, 48 h
K562 = assay: Growth inhibition of human K562 cells after 48 hrs by sulforhodamine B assay; type: functional; details: K562, 48 h; for CC50: read-out: LC50 (the source's name)
HL-60(TB) = assay: Growth inhibition of human HL-60(TB) cells after 48 hrs by sulforhodamine B assay; type: functional; details: HL-60, 48 h; for CC50: read-out: LC50 (the source's name)
OVCAR-5 = assay: Growth inhibition of human OVCAR5 cells assessed as cell growth at 10 uM after 48 hrs by sulforhodamine B assay; type: functional; details: OVCAR-5, 48 h, read-out: Activity
OVCAR-8 [3] = assay: Growth inhibition of human OVCAR8 cells assessed as cell growth at 10 uM after 48 hrs by sulforhodamine B assay; type: functional; details: OVCAR-8, 48 h, read-out: Activity
OVCAR-3 = assay: Growth inhibition of human OVCAR3 cells assessed as cell growth at 10 uM after 48 hrs by sulforhodamine B assay; type: functional; details: OVCAR-3, 48 h, read-out: Activity
SK-MEL-2 = assay: Growth inhibition of human SK-MEL-2 cells assessed as cell growth at 10 uM after 48 hrs by sulforhodamine B assay; type: functional; details: SK-MEL-2, 48 h, read-out: Activity
M14 = assay: Growth inhibition of human M14 cells assessed as cell growth at 10 uM after 48 hrs by sulforhodamine B assay; type: functional; details: M14, 48 h, read-out: Activity
SW-620 = assay: Growth inhibition of human SW620 cells assessed as cell growth at 10 uM after 48 hrs by sulforhodamine B assay; type: functional; details: SW-620, 48 h, read-out: Activity
HT-29 = assay: Growth inhibition of human HT-29 cells assessed as cell growth at 10 uM after 48 hrs by sulforhodamine B assay; type: functional; details: HT-29, 48 h, read-out: Activity
KM12 = assay: Growth inhibition of human KM12 cells assessed as cell growth at 10 uM after 48 hrs by sulforhodamine B assay; type: functional; details: KM12, 48 h, read-out: Activity
HCT-15 [4] = assay: Growth inhibition of human HCT15 cells assessed as cell growth at 10 uM after 48 hrs by sulforhodamine B assay; type: functional; details: HCT-15, 48 h, read-out: Activity
NCI-H522 [5] = assay: Growth inhibition of human NCI-H522 cells assessed as cell growth at 10 uM after 48 hrs by sulforhodamine B assay; type: functional; details: NCI-H522, 48 h, read-out: Activity
NCI-H23 = assay: Growth inhibition of human NCI-H23 cells assessed as cell growth at 10 uM after 48 hrs by sulforhodamine B assay; type: functional; details: NCI-H23, 48 h, read-out: Activity
BT-549 = assay: Growth inhibition of human BT549 cells after 48 hrs by sulforhodamine B assay; type: functional; details: BT-549, 48 h
T47D = assay: Growth inhibition of human T47D cells after 48 hrs by sulforhodamine B assay; type: functional; details: for CC50: read-out: LC50 (the source's name)
DU-145 = assay: Growth inhibition of human DU145 cells after 48 hrs by sulforhodamine B assay; type: functional; details: DU-145, 48 h
CAKI-1 = assay: Growth inhibition of human CAKI-1 cells after 48 hrs by sulforhodamine B assay; type: functional; details: CAKI-1, 48 h; for CC50: read-out: LC50 (the source's name)
786-0 = assay: Growth inhibition of human 786-0 cells after 48 hrs by sulforhodamine B assay; type: functional; details: 786-0, 48 h; for CC50: read-out: LC50 (the source's name)
SK-OV-3 = assay: Growth inhibition of human SKOV3 cells after 48 hrs by sulforhodamine B assay; type: functional; details: SK-OV-3, 48 h; for CC50: read-out: LC50 (the source's name)
OVCAR-8 [6] = assay: Growth inhibition of human OVCAR8 cells after 48 hrs by sulforhodamine B assay; type: functional; details: OVCAR-8, 48 h; for CC50: read-out: LC50 (the source's name)
SK-MEL-28 = assay: Growth inhibition of human SK-MEL-28 cells after 48 hrs by sulforhodamine B assay; type: functional; details: SK-MEL-28, 48 h
LOX IMVI = assay: Growth inhibition of human LOXIMVI cells after 48 hrs by sulforhodamine B assay; type: functional
SF-539 = assay: Growth inhibition of human SF539 cells after 48 hrs by sulforhodamine B assay; type: functional; details: SF-539, 48 h
RPMI-8226 = assay: Growth inhibition of human RPMI8226 cells assessed as cell growth at 10 uM after 48 hrs by sulforhodamine B assay; type: functional; details: RPMI-8226, 48 h, read-out: Activity
MOLT-4 = assay: Growth inhibition of human MOLT4 cells assessed as cell growth at 10 uM after 48 hrs by sulforhodamine B assay; type: functional; details: MOLT-4, 48 h, read-out: Activity

## COc1cc(-c2nn(-c3cccc(NC(=O)c4cccc(C(F)(F)F)c4)c3)cc2-c2ccncc2)ccc1Cl
MDA-MB-468
  growth at 10 µM: -19.4%
UO-31
  growth at 10 µM: 25.1%
PC-3
  growth at 10 µM: 4.39%
HCT-15 [1]
  GI50: 1550 nM
  LC50: > 50000 nM
  TGI: > 50000 nM
NCI-H522 [2]
  GI50: 1050 nM
  LC50 (concentration killing 50% of cells): > 50000 nM
  TGI: 3850 nM
COLO 205
  GI50: 1640 nM
  LC50 (concentration killing 50% of cells): 24800 nM
  TGI: 5170 nM
NCI-H460
  GI50: 1450 nM
  LC50: > 50000 nM
  TGI: 9270 nM
HOP-62
  TGI: > 50000 nM
  CC50: > 50000 nM
HOP-92
  GI50: 555 nM
  IC50: 560 nM
  LC50: > 50000 nM
  TGI: 3120 nM
K562
  GI50: 1400 nM
  TGI: > 50000 nM
  CC50: > 50000 nM
HL-60(TB)
  GI50: 2020 nM
  TGI: > 50000 nM
  CC50: > 50000 nM
OVCAR-5
  growth at 10 µM: 49.4%
OVCAR-8 [3]
  growth at 10 µM: 11.8%
OVCAR-3
  growth at 10 µM: -25.6%
SK-MEL-2
  growth at 10 µM: -38.6%
M14
  growth at 10 µM: 12.3%
SW-620
  growth at 10 µM: 36%
HT-29
  growth at 10 µM: -12.1%
KM12
  growth at 10 µM: 13.4%
HCT-15 [4]
  growth at 10 µM: 12.8%
NCI-H522 [5]
  growth at 10 µM: -42.3%
NCI-H23
  growth at 10 µM: 24.8%
BT-549
  GI50: 2870 nM
  LC50 (50% lethal concentration): > 50000 nM
  TGI: 46800 nM
T47D
  GI50: 2550 nM
  TGI: > 50000 nM
  CC50: > 50000 nM
DU-145
  GI50: 1760 nM
  LC50: > 50000 nM
  TGI: 32100 nM
CAKI-1
  GI50: 2010 nM
  TGI: > 50000 nM
  CC50: > 50000 nM
786-0
  GI50: 2450 nM
  TGI: > 50000 nM
  CC50: > 50000 nM
SK-OV-3
  GI50: 2290 nM
  TGI: > 50000 nM
  CC50: > 50000 nM
OVCAR-8 [6]
  GI50: 2000 nM
  TGI: > 50000 nM
  CC50: > 50000 nM
SK-MEL-28
  GI50: 2490 nM
  LC50: > 50000 nM
  TGI: > 50000 nM
LOX IMVI
  GI50: 1390 nM
  LC50: > 50000 nM
  TGI: > 50000 nM
SF-539
  GI50: 895 nM
  LC50 (concentration killing 50% of cells): > 50000 nM
  TGI: 2300 nM
RPMI-8226
  growth at 10 µM: -1.13%
MOLT-4
  growth at 10 µM: 8.63%

## O=C(Nc1cccc(-n2cc(-c3ccncc3)c(-c3ccc(Cl)c(O)c3)n2)c1)Nc1ccc(Cl)c(C(F)(F)F)c1
MDA-MB-468
  growth at 10 µM: -49.5%
UO-31
  growth at 10 µM: -6.09%
PC-3
  growth at 10 µM: -10.4%
HCT-15 [1]
  GI50: 867 nM
  LC50: > 32500 nM
  TGI: 13800 nM
NCI-H522 [2]
  GI50: 720 nM
  LC50 (concentration killing 50% of cells): 24500 nM
  TGI: 2500 nM
COLO 205
  GI50: 2390 nM
  LC50 (concentration killing 50% of cells): 16100 nM
  TGI: 6750 nM
NCI-H460
  GI50: 1010 nM
  LC50: > 32500 nM
  TGI: 4000 nM
HOP-62
  GI50: 1220 nM
  TGI: 7830 nM
  CC50: > 32500 nM
HOP-92
  GI50: 376 nM
  IC50: 380 nM
  LC50: 13500 nM
  TGI: 1460 nM
K562
  GI50: 921 nM
  TGI: > 32500 nM
  CC50: > 32500 nM
HL-60(TB)
  GI50: 1500 nM
  TGI: > 32500 nM
  CC50: > 32500 nM
OVCAR-5
  growth at 10 µM: 23.3%
OVCAR-8 [3]
  growth at 10 µM: -41.8%
OVCAR-3
  growth at 10 µM: -43%
SK-MEL-2
  growth at 10 µM: -60.4%
M14
  growth at 10 µM: -25.5%
SW-620
  growth at 10 µM: -19.7%
HT-29
  growth at 10 µM: -6.5%
KM12
  growth at 10 µM: -27.3%
HCT-15 [4]
  growth at 10 µM: 1.04%
NCI-H522 [5]
  growth at 10 µM: -30%
NCI-H23
  growth at 10 µM: -25.8%
BT-549
  GI50: 1250 nM
  LC50 (50% lethal concentration): > 32500 nM
  TGI: 8070 nM
T47D
  GI50: 1120 nM
  TGI: > 32500 nM
  CC50: > 32500 nM
DU-145
  GI50: 1130 nM
  LC50: 25100 nM
  TGI: 4630 nM
CAKI-1
  GI50: 795 nM
  TGI: 2630 nM
  CC50: > 32500 nM
786-0
  GI50: 1280 nM
  TGI: > 32500 nM
  CC50: > 32500 nM
SK-OV-3
  GI50: 1340 nM
  TGI: 14900 nM
  CC50: > 32500 nM
OVCAR-8 [6]
  GI50: 759 nM
  TGI: 2280 nM
  CC50: > 32500 nM
SK-MEL-28
  GI50: 978 nM
  LC50: 12400 nM
  TGI: 3330 nM
LOX IMVI
  GI50: 554 nM
  LC50: 2390 nM
  TGI: 1150 nM
SF-539
  GI50: 782 nM
  LC50 (concentration killing 50% of cells): > 32500 nM
  TGI: 2390 nM
RPMI-8226
  growth at 10 µM: -10.5%
MOLT-4
  growth at 10 µM: -22.1%
